As usually defined, the IC50 is the concentration that gives 50% inhibition. Read a low IC50 as greater potency. For orientation: EC50 means the concentration needed to bring the measured effect to its halfway point.

Experimental findings from patent US6214805A, “RNase L activators and antisense oligonucleotides effective to treat RSV infections” (priority 1997, dated 2001) are described below.

Values joined by “and” are separate entries in the source; they are usually repeats but may differ in a detail not shown here. Equal values may be shown once.

Series [1] has as its system RSV strain A2. Kind of series: Inhibition of RSV replication in RSV-infected 9HTE cells, virus plaque assay on CV-1 cells at 36 h post-infection. It counts as cell-based, Respiratory syncytial virus. Conditions: 9HTE cells; for % Inhibition of RSV replication: M.O.I. 2.0, 36 hrs post-infection. From the text: To develop 2-5A antisense chimeras with the potential to block RSV replication, an oligonucleotide binding site in the viral RNA polymerase (RSV L) mRNA, which encodes a low abundance message that is absolutely required for RSV replication was selected. The first chimera synthesized and evaluated was pA4 -antiRSV/(8490-8509). The binding sites for the chimeric oligonucleotide's antisense domain are to the transcripts of nucleotides 8490-8509 in the RSV genome, which spans the translation start codon for the L protein, and to nucleotides 8490-8509 of the antigenomic strand (the template for reproduction of the genome). Since to function as an effective treatment, a candidate agent must be able to inhibit viral replication subsequent to diagnosis, the anti-RSV effect of the 2-5A antisense chimera was determined on human tracheal epithelial cells, 9HTE, with treatments beginning either 4 h before RSV infection (pre-/post-infection treatments) or 2 h following infection (post-infection treatments). In the post-infection treatments, pA4 -antiRSV/([…]), was added at t+2, t+14 and t+26, (numbers represent time in h relative to time of infection, 0) For pre-infection treatment, pA4 -antiRSV/(8490-8509) (10 μM final concentration), was added at t-4, and t0 in addition to […]; t+14 and t+26. Virus harvested from control and oligonucleotide-treated 9HTE cells was measured by infecting CV-1 cells and subsequently counting viral plaques. […] On the basis of these experiments, all subsequent experiments were performed with post-infectiontreatments only. Additionally, these experiments indicate the potential use of these compounds as a treatment for active infection as compared to a prophylactic measure.
The human tracheal epithelial cell line, 9HTE, (Gruenert et al., 1988) and CV-1 cells, (American Type Culture Collection, Rockville, Md., CCI#70) a green monkey kidney cell line which is highly permissive to RSV infection, were cultured in minimal essential medium (MEM) supplemented with 10% (v/v) fetal bovine serum (FBS), 2 mM L-glutamine, 1× MEM amino acids solution, 1× MEM non-essential amino acids solution, 100 U/ml penicillin, 100 μg/ml streptomycin and 0.25 μg/ml amphotericin B ("culture medium") (all reagents from Gibco BRL, Bethesda, Md.). RSV strain A2 (ATCC No. VR1302) was propagated in CV-1 cells. CV-1 monolayers were infected at a multiplicity of infection (M.O.I.) of 0.2 and cultured 46 h in MEM, 2% FBS, 1× Penicillin/Streptomycin (PS) in 5% CO2, 95% O2 at 37° C. Cells were then washed 2 times in MEM and subsequently covered in MEM, 2% FBS, 1× PS, 50 mM HEPES (pH7.5), 100 mM Mg(SO4). After 2 h at 37° C., cells were scraped and sonicated as previously described (Panuska et al., 1995). Aliquots (1 ml each) of cell sonicates were flash frozen in ethanol/dry ice within 20 min of scraping. Several aliquots were then thawed and titered by a plaque assay on CV-1 cells as previously described (Cirino et al., 1993). The range of virus yield from this procedure was 2 to 7×10^6 plaque forming units (pfu) per ml.
Infection of 9HTE cells was performed as previously described (Merolla et al., 1994). Briefly, confluent monolayers were exposed to RSV diluted in MEM, 2% FBS, for 2 h at 37° C. in 5% CO2, 95% O2. After exposure, cells were washed two times with serum-free MEM media and then fresh culture media (with 10% FBS) was added. Oligonucleotides were either added 4 h prior to infection (t-4) or immediately after infection (t+2) and also at t+14 and t+26. Cells were harvested for plaque assays at 36 h post-infection to determine viral titers as previously described (Cirino et al., 1993). Cells were washed twice to remove any residual antisense and were then scraped in MEM containing 2% FBS, 1× PS. 9HTE cells were sonicated for 20 sec on ice then the extracts were serially diluted and transferred to a confluent monolayer of CV-1 for quantitation of infectious viral particles. […]

Series [2] deals with Hep-2 Cells. Kind of series: Neutral red uptake assay of cytotoxicity in HEp-2 cells. It counts as cell-based, human. To be noted: Table 11, neutral red, HEp2. As for the experimental part:
(§1) Embryonic African green monkey kidney cells (MA-104) were obtained from BioWhittaker, Inc. (Walkersville, Md.). HEp-2 cells were propagated from a human epidermoid carcinoma of the larynx (American Type Culture Collection, ATCC; Rockville, Md.). The cells were grown in minimal essential medium. (MEM, Gibco-BRL, Gaitherburg, Md.) supplemented with 0.1% NaHCO3 and 10% fetal bovine serum (FBS, Hyclone Laboratories, Logan Utah.). When performing antiviral assays, serum was reduced to 2% and 50 μg/ml gentamicin (Sigma Chemical Company, St. Louis, Mo.) was added to the medium.
(§2) This assay was performed by a modified method as described by Cavenaugh et al. (Cavenaugh et al. 1990, Invest. New Drugs 8:347-354). Briefly, medium was removed from each well of a plate scored for CPE from a CPE inhibition assay, 0.2 ml of neutral red (0.034% in PSS) was added to each of the wells of that plate and the plate incubated for 2 hr at 37° C. in the dark. The neutral red solution was removed from the wells and the wells rinsed twice with PBS (pH 7.4). Equal volumes (0.1 ml) of absolute ethanol and Sorenson citrate buffer (0.1 M sodium citrate, 0.1 M HCI, pH 4.2) were mixed together and added to each well. Plates were incubated in the dark for 30 min. at room temperature to solubilize the dye. The plates were then gently mixed on a 96-well plate adapted vortexer for 1 min. Absorbances at 540 nm and 450 nm were read with a microplate reader (Bio-Tek EL 1309; Bio-Tek Instruments, Inc. Winooski, Vt.). Absorbance values were expressed as percents of untreated controls and EC50 and IC50 values were calculated by regression analysis.

Series [3] concerns Hep-2 Cells. Kind of series: Cytotoxicity by morphological changes in HEp-2 cells (CPE inhibition assay). Format: cell-based, human. To be noted: Table 10, CPE, HEp2. As for the experimental part: as §1
Morphological changes due to compound cytotoxicity were graded on a scale of 0-5; grade 5 was defined as 100% cytotoxicity. The 50% cytotoxic dose (IC50 was calculated by regression analysis. A selective index (S.I.) was calculated for each compound [S.I.=(IC50)/(EC50 ].

In series [4] the test system is RSV strain A2. Kind of series: Neutral red uptake assay of CPE inhibition in HEp-2 cells. Format: cell-based, Respiratory syncytial virus. Conditions: Table 11, neutral red, HEp2; for EC50: read-out: EC50. As for the experimental part: as §2
Series [5] concerns RSV strain A2. Kind of series: CPE inhibition assay in HEp-2 cells. It counts as cell-based, Respiratory syncytial virus. To be noted: Table 10, CPE, HEp2; for EC50: read-out: EC50. As for the experimental part: The CPE inhibition assay used in this study was performed as described by Sidwell and Huffman (Sidwell et al., 1971, Appl. Microbiol. 22:7979-7801) with slight modifications. Varying concentrations of test compounds were added to each plate containing near confluent cell monolayers (1×10^5 cells/well) followed immediately by the addition of virus at a multiplicity of infection (MOI)=0.01, and then incubated at 37° C. […] All compounds were assayed for virus inhibition in quadruplicate and for cytotoxicity in duplicate. For each compound, two wells were set aside as uninfected, untreated cell controls per test and four wells per test received virus only and represented controls for virus replication. […] For all CPE-based assays, the 50% effective concentration (EC50) was calculated by regression analysis using the means of the CPE ratings at each concentration of compound.

The mark [6] stands for this setting: 6.6 μM oligonucleotide/treatment at t+2, t+14, t+26 h.
The mark [7] stands for this setting: 9.9 μM oligonucleotide/treatment at t+2, t+14, t+26 h.
Where [8] appears, read: 3.3 μM oligonucleotide/treatment at t+2, t+14, t+26 h.
The mark [9] stands for this setting: q.d. 1 day (added along with virus, never replenished).

In the case of “A2'p(A2'p)3 -[(Bu)p]2 -(5'aat ggg atc cat ttt gtc c3'-3'c5') [A4-antiRSV3'-3'C/(8490-8509)]”, the “% Inhibition of RSV replication” value in the series on RSV strain A2 [1] (setting [6]) was 20%; in the series on RSV strain A2 [1] (setting [7]), 28.3%.

For the substance “pA2'p(A2'p)3 -[(Bu)p]2 -(3'ccc tgt ttt acc tag ggt aa5') [pA4-3'antiRSV5'/(8490-8509)]”, the “% Inhibition of RSV replication” value in the series with RSV strain A2 [1] (setting [7]) stood at 69%.

Take “pA2'p(A2'p)3 -[(Bu)p]2 -(5'aat ggg atc cat ttt gtc c3'-3'c5') [pA4-antiRSV3'-3'C/(8490-8509)]”: the “% Inhibition of RSV replication” value in the series on RSV strain A2 [1] (setting [8]) is 2%; in the series with RSV strain A2 [1] (setting [6]), 64.3% and 38.8%; in the series with RSV strain A2 [1] (setting [7]), 64.8% and 74%.

Regarding “pA2'p(A2'p)3 -[(Bu)p]2 -(5'aat ggg atc cat ttt gtc cc3') [pA4-antiRSV/(8490-8509)]”, the figures for the “% Inhibition of RSV replication” value in the series on RSV strain A2 [1] (setting [8]), with RSV strain A2 [1] (setting [6]) and in the series on RSV strain A2 [1] (setting [7]) were 3%, 38.8% and 64.8%, respectively. Further, the “inhibition of RSV replication” value in the series with RSV strain A2 [1] (post-infection treatment, 10 μM at t+2, t+14, t+26) is “about 70%”; in the series with RSV strain A2 [1] (pre-/post-infection treatment, 10 μM at t-4, t0 and after infection) it was “about 70%”.

For “sp(5'A2')4 BupBupd(GsAsTsAGAAATAGAAAsGsCsA) (antisense GATAGAAATAGAAAGCA; chemistry not fully specified) [MP426, 2-5A-antisense control with scrambled antisense domain of MP351]”, the IC50 in the series with Hep-2 Cells [2] (B.I.D. 2 days) was more than 3.2 µM; in the series on Hep-2 Cells [2] (B.I.D. 3 days) it was 3.2 µM; in the series on Hep-2 Cells [2] (B.I.D. 4 days) it was 3.2 µM; in the series on Hep-2 Cells [2] (setting [9]), more than 3.2 µM; with Hep-2 Cells [2] (q.d. 3 days), 3.2 µM; in the series on Hep-2 Cells [2] (q.d. 4 days), 3.2 µM. Besides, the concentration for half-maximal inhibition (IC50) in the series with Hep-2 Cells [3] (B.I.D. 2 days) was more than 3.2 µM; with Hep-2 Cells [3] (B.I.D. 3 days), 3.2 µM; in the series on Hep-2 Cells [3] (B.I.D. 4 days), 3.2 µM; with Hep-2 Cells [3] (setting [9]), more than 3.2 µM; with Hep-2 Cells [3] (q.d. 3 days), more than 3.2 µM; in the series on Hep-2 Cells [3] (q.d. 4 days), more than 3.2 µM. The SI in the series with RSV strain A2 [4] (B.I.D. 2 days) is more than 11; with RSV strain A2 [4] (B.I.D. 3 days) it was 3.2; in the series on RSV strain A2 [5] (B.I.D. 2 days), more than 32; with RSV strain A2 [5] (B.I.D. 3 days), 16; with RSV strain A2 [5] (B.I.D. 4 days), 3.2; with RSV strain A2 [5] (q.d. 3 days) it was more than 1. In the series on RSV strain A2 [5] (q.d. 4 days), this substance had an SI of more than 3.2. Further, the EC50 with RSV strain A2 [4] (B.I.D. 2 days) was 0.3 µM; with RSV strain A2 [4] (B.I.D. 4 days) it was more than 3.2 µM; in the series with RSV strain A2 [4] (setting [9]) it was more than 3.2 µM; with RSV strain A2 [4] (q.d. 3 days), more than 3.2 µM; with RSV strain A2 [4] (q.d. 4 days) it was more than 3.2 µM; in the series with RSV strain A2 [5] (B.I.D. 3 days) it was 0.2 µM. Further, the 50% effective concentration (EC50) is more than 3.2 µM in the series on RSV strain A2 [5] (setting [9]) and 3.2 µM in the series with RSV strain A2 [5] (q.d. 3 days).

As to “spA2'p(A2'p)3 -[(Bu)p]2 -(5'aat ggg atc cat ttt gtc cc3') [spA4-antiRSV/(8490-8509)]”, the figures for the “% Inhibition of RSV replication” value with RSV strain A2 [1] (setting [8]), in the series with RSV strain A2 [1] (setting [6]) and with RSV strain A2 [1] (setting [7]) were 16.5%, 71% and 94%, respectively.

As for “spA2'p(A2'p)3 -[(Bu)p]2 -(5'ata gtg tgt tct ttt gat t3'-3'a5') [spA4-antiRSV3'-'3A/(8251-8270)]”, the “% Inhibition of RSV replication” value was 86.7% in the series on RSV strain A2 [1] (setting [8]) and 92% in the series on RSV strain A2 [1] (setting [6]).

For “spA2'p(A2'p)3 -[(Bu)p]2 -(5'ctc tga gaa aga gat aa3'-3'c5') [spA4-antiRSV3'-3'C/(8561-8578)]”, the “% Inhibition of RSV replication” value in the series with RSV strain A2 [1] (setting [8]) came to 57%.

Turning to “spA2'p(A2'p)3 -[(Bu)p]2 -(5'gat aag gac cat tga ata t3'-3'g5') [spA4-antiRSV3'-3'G/(8599-8618)]”, the “% Inhibition of RSV replication” value in the series on RSV strain A2 [1] (setting [8]) is 43% and 44%.

As for “spA2'p(A2'p)3 -[(Bu)p]2 -(5'gat tga aat ata gtg tgt3'-3't5') [spA4-antiRSV3'-3'T/(8261-8279)]”, the “% Inhibition of RSV replication” value with RSV strain A2 [1] (setting [8]) stood at 78%; in the series with RSV strain A2 [1] (setting [6]), 87%; in the series with RSV strain A2 [1] (setting [7]), 87%.
